{
  "source": "patent US20230138984A1",
  "about": "“HA-PACLITAXEL CONJUGATE FOR TREATMENT OF MESOTHELIOMA” (FIDIA FARMACEUTICI S.p.A., priority 2020, published 2023)",
  "key": {"H28 cells": {"test_system": "H28 cells", "experiment": "MTT cytotoxicity assay on mesothelioma cell line H28", "conditions": "Homo sapiens, NCI-H28, 48 h, read-out: Normalized IC50"}, "H2052 cells": {"test_system": "H2052 cells", "experiment": "MTT cytotoxicity assay on mesothelioma cell line H2052", "conditions": "Homo sapiens, NCI-H2052, 48 h, read-out: Normalized IC50"}, "[1]": {"test_system": "human mesothelioma H2052 cells", "conditions": "for average luminescence of tumor zone: weekly, order of magnitude, compared with untreated 1x10^12 on the 100° day", "from_the_text": "The cell lines of human mesothelioma H2052 were transduced with a lentiviral vector (method by which the genes can be inserted into cells using the lentivirus) containing a bidirectional promoter allowing the high and coordinated expression of two reporter genes for the synthesis of luciferase and eGFP (enhanced Green Fluorescent Protein), as described in Amendola et al., Nat Biotechnol 2005, 23:108-16: luciferase is an enzyme that catalyzes the oxidation of luciferin which oxidizing emits energy ([…]) in the form of light radiation and such reaction has an ultra-high sensitivity; the eGFP derives from the jellyfish Aequorea victoria, and it is capable of emitting bright green light when exposed to certain wavelengths; both such proteins are used below as a “marker system” for human mesothelioma cells H2052 transduced as above, in order to identify the tumor mass that is formed in animals injected with such cells and to determine its dimensions and the growth over time through suitable bioluminescence sensor.\nCells were incubated for 6 hours in a mixture of complete medium (RPMI + 10% FBS, 1% HEPES, L-glutamine and penicillin/streptomycin) containing the above-mentioned vector and protamine sulphate. At the end of 6 hours of incubation, supernatants were re-integrated with complete medium. After 5 days, the effect of the transduction was evaluated through flow cytometry.\nCells were then expanded and sub-divided in order to isolate the population with the higher expression of reporter genes.\nAll treated animals were monitored through detection of bioluminescence emitted by their tumor zone treated with HA-paclitaxel conjugate, in order to assess over time, the dimension (and therefore the growth) of the tumor with reference to animals untreated with any chemotherapeutic agent and to those treated with non-conjugated paclitaxel."}, "H2452 cells": {"test_system": "H2452 cells", "experiment": "MTT cytotoxicity assay on mesothelioma cell line H2452", "conditions": "Homo sapiens, NCI-H2452, 48 h, read-out: Normalized IC50"}},
  "note": "Read-outs that look alike come from different tables or passages of the source.",
  "data": [
    {"smiles": "CC(=O)O[C@H]1C(=O)[C@@]2(C)[C@H]([C@H](OC(=O)c3ccccc3)[C@]3(O)C[C@H](OC(=O)[C@H](O)[C@@H](NC(=O)c4ccccc4)c4ccccc4)C(C)=C1C3(C)C)[C@]1(OC(C)=O)CO[C@@H]1C[C@@H]2O", "note": "[paclitaxel]", "values": [
      {"measurement": "IC50", "setting": "H28 cells", "result": 0.787, "unit": "µg/mL"},
      {"measurement": "IC50", "setting": "H2052 cells", "result": 0.225, "unit": "µg/mL"},
      {"measurement": "average luminescence of tumor zone", "setting": "[1]; 2° sample: 10 mg/Kg iv for 3 treatments then ip", "result": "~1x10^11 Ph/sec"},
      {"measurement": "average luminescence of tumor zone", "setting": "[1]; 3° sample: 10 mg/Kg ip", "result": "~1x10^11 Ph/sec"},
      {"measurement": "bioluminescence emitted by treated tumor zone", "setting": "[1]; non-conjugated paclitaxel 10 mg/Kg, after 139 days of observation (FIG. 2)", "result": "around 12x10^11 Ph/sec"},
      {"measurement": "IC50", "setting": "H2452 cells", "result": 0.8, "unit": "µg/mL"}
    ]}
  ]
}
